Marks after values point to notes of the source that are not given here.

Assay in the first series: not given
Conditions: From supplier data sheet; cited from earlier work.
On to PEG-6 decyl alcohol, for which the Surface tension is given as 26.6* mN/m.
With PEG-7 lauryl alcohol, the Surface tension is on record as 29* mN/m.
As for “PEG-8 branched C12-C14 secondary alcohol”, the Surface tension is given as 27* mN/m.
Consider “PEG-11 branched C12-C14 secondary alcohol”, for which the Surface tension is on record as 30* mN/m.
PEG-22 oleyl alcohol: the Surface tension was 44* mN/m.

Another series in a line: Surface tension above critical micelle concentration in water (pendant drop method). Conditions: 5 wt % of the compound in demineralized water, picture 5 seconds after drop. The format is physicochemical. On the procedure: The surface tension of a liquid/air interface can be determined by the “pendant drop method” as described in “Encyclopedia of Surface and Colloid Science” by Marcel Dekker, 2002.
Samples were prepared as 5 wt % of the compound in demineralized water mixed in a 50 mL PE bottle. At 5 wt % it is ensured that concentrations are well above the critical micelle concentration. The samples were left over-night on a shaking table to ensure saturation and/or mixing. The measurements by “pendant drop method” were performed with DataPhysics OCA-15 pus, Dynamic Contact Angle, using software SCA202 V 4.5.8. The needle was a Disposable needle SNP-D 165/137, and the volume drop was 15 microliters.
The picture from which the surface tension is calculated is taken 5 seconds after the drop is forced out of the syringe.
Consider PEG-6 stearate, for which the Surface tension turned out to be 43 mN/m.
PEG-12 nonylphenol, branched showed a Surface tension of 32 mN/m.
PEG-12 stearate had a Surface tension of 35 mN/m.
On the same count and under the same terms, for PEG-20 oleyl ether the value was 36 mN/m.
PEG-20 sorbitan monostearate yielded a Surface tension of 43 mN/m.

The values are drawn from US20170130064A1, “NOVEL POLYSILOXANE-BASED FOULING-RELEASE COATS COMPRISING POLY(OXYALKYLENE)-MODIFIED ALCOHOLS” (HEMPEL A/S, priority 2014, published 2017).
